Entries after “also recorded” stand apart in the source; their conditions may differ. Where a SMILES comes first, the peptide text is derived from it. Bridges are numbered along the chain shown (N, C = ends).
Legend:
[1] = Preliminary surface plasmon resonance, sphingolipid binding; conditions: preliminary SPR
[2] = tested on: L. monocytogenes EGD; assay: Two-stage radial diffusion assay; format: cell-based, Listeria monocytogenes
Description: (§1) FIG. 4. Effect of salt on antibacterial activity of circular minidefensins. Human retrocyclin and monkey RTD-1 were tested against our standard lab stains: E. coli ML-35p, P. aeruginosa MR 3007, L. monocytogenes EGD, and S. aureus 930918. The bars show MIC values±SEM values that resulted from 3-6 radial diffusion assays per organism and assay condition.
(§2) The effects of NaCl on the antimicrobial activity of retrocyclin and RTD-1, from two-stage radial diffusion assays, are compared in FIG. 4.

[3] = tested on: ME-180 cervical carcinoma cells; conditions: 100 μg/ml
[4] = tested on: HIV-1 strain IIIB; assay: HIV-1 IIIB infection of H9 cells, p24 antigen ELISA; format: cell-based
Description: FIG. 1. Circular minidefensins reduce HIV-1 infection of H9 cells. HIV-I strain IIIB (MOI=10^−2) was incubated with 2.5×10^5 H9 cells in the presence or absence of 20 μg/ml RTD-1, RTD-2 or RTD-3. p24 antigen release was monitored by ELISA on days 3, 6, and 9. Assay sensitivity=10 pg/ml.
Immortalized CD4^+ H9 cells, which are permissive for infection with this strain, were maintained in RPMI supplemented with 10% heat-inactivated fetal calf serum (FCS), 10 mM HEPES, 2 mM glutamine, 100 U of penicillin/ml, and 10 μg of streptomycin/ml (R10 media). Cells (2.5×10^5/100 μl) were incubated with virus (multiplicity of infection (MOI)=10^−2) in the presence or absence of 20 μg/ml RTD-1, RTD-2 or RTD-3 for 3 hrs at 37° C./5% CO2. The cells were washed in R10 media, seeded in 48-well tissue culture plates in 1 ml R10 media, and incubated at 37° C./5% CO2 for 9 days. Aliquots of cell supernatant were removed at the specified time points and analyzed by a sensitive ELISA (DuPont NEN) that quantitates p24 antigen of HIV-1. The three circular rhesus minidefensins were similarly active, inhibiting HIV-1 by 100-1000 fold by 9 days post-inoculation (note the logarithmic scale).
Either HIV-1-permissive H9 cells were used as targets, or primary CD4^+ lymphocytes from HIV-1-seronegative donors generated from freshly purified peripheral blood mononuclear cells (PBMC) stimulated with a CD3-CD8 bispecific monoclonal antibody. After approximately 7 days, when 98% of these cells co-expressed CD3 and CD4, they were infected with HIV-1 with or without retrocyclin or other test peptide. These cells were maintained in RPMI containing 10% FCS supplemented with 2 mM glutamine, 100 U of penicillin/ml, 10 μg of streptomycin/ml, and 50 U of interleukin 2/ml (R10-50 media).
Mature retrocyclin was prepared by a three-step process.

[5] = MTT cytotoxicity assay; format: cell-based, human; conditions: human, H9 cells
Description: (§3) FIG. 8. Cytotoxicity of antimicrobial peptides against H9 cells. Retrocyclin, RTD-1 and PG-1 (a porcine-derived peptide with anti-HIV-1 activity) were tested for cytotoxicity using an MTT assay for cell proliferation. Note that the EC50 of Retrocyclin and RTD-1 were >100 μg/ml, concentrations well above their antiviral concentration.
(§4) Retrocyclin is not cytotoxic. […] Retrocyclin was not hemolytic for human erythrocytes.

[6] = tested on: H9 cells; assay: MTT cytotoxicity assay; format: cell-based, human; conditions: 100 μg/ml
Description: as §3, §4

[7] = tested on: HIV-IIIB; assay: Direct inactivation of HIV-1 virions (preincubation with virus, dilution, infection of H9 cells); format: cell-based; conditions: 200 μg/ml, 30 min, then diluted 190-fold
Description: FIG. 12. […] Retrocyclin (2-200 μg/ml) was incubated with HIV-IIIB (MOI=10^−2) diluted in R10 media prior to infecting H9 cells. p24 antigen release was measured by ELISA. Limit of detection=10 pg/ml.
To determine if retrocyclin directly inactivated HIV-1 virions, HIV-IIIB (MOI 10^−2) was incubated with 2 μg/ml, 20 μg/ml, or 200 μg/ml retrocyclin for 30 min at room temperature in R10 media. […] Viral replication was measured by collecting supernatant for 9 days at 3 day intervals to quantify HIV-1 p24 antigen by ELISA (FIG. 12). […] In this respect, the actions of retrocyclin are different from the direct inactivation of herpes simplex virus previously observed with human and rabbit α-defensins.

[8] = tested on: human erythrocytes
[9] = tested on: HSV-2; assay: HSV inactivation microplate assay on ME-180 cells (MTT); format: cell-based; conditions: 2-50 μg/ml, 2 hrs with virus, 72 hrs culture
Description: FIG. 14. Inactivation of HSV-1 and HSV-2 by retrocyclin and RC-101. Retrocyclin (left panel) and RC-101 (right panel) at the indicated concentrations were incubated with herpes simplex virus, type 1 (HSV-1) or HSV-2 for 2 hrs and then added to ME-180 cell monolayers. Cells were incubated at 37° C. for 72 hrs, and cytotoxicity was measured with an MTT kit.
Some retrocyclins are slightly active against herpes simplex virus (HSV). To determine if the activity of retrocyclin against HIV-1 was specific or representative of a more global antiviral effect, it was tested its ability to prevent HSV infection in vitro. A quantitative microplate assay was used to screen retrocyclin and retrocyclin-congeners for their ability to inactivate HSV type 1 (HSV-1) and HSV-2. The assay utilized small amounts of peptide and simultaneously evaluated for peptide-induced cytotoxicity. In brief, final peptide concentrations of 2-50 μg/ml were incubated with virus stocks for 2 hrs and added directly to ME-180 human cervical carcinoma cells. Cultures were incubated at 37° C. for 72 hrs and cytotoxicity was measured using a 3-(4,5-dimethylthiazon-2-yl)-2,5-diphenyltetrazolium bromide (MTT) cell proliferation kit (Boehringer-Mannheim, Germany). Calculations to assess antiviral activity and compute “percent protection” are delineated in (90).

[10] = tested on: E. coli ML-35p; assay: Two-stage radial diffusion assay; format: cell-based, Escherichia coli
Description: as §1, §2

Row | SMILES | binding to sphingolipids (galactosylceramide) [1] | effect of salt on antimicrobial activity ([2]; hypersalinity (175 mM NaCl)) | antimicrobial activity ([2]; physiological (100 mM) NaCl) | cytotoxicity (MTT) [3] | concentration required for complete protection against HIV-1 infection [4] | inhibition of HIV-1 replication (p24) ([4]; H9 cells, IIIB (X4), peptide 10-20 μg/ml) | antiviral activity ([4]; at <2 μg/ml, n=5) | EC50 [5] | cytotoxicity (MTT) [6] | HIV titer after incubation of virus with peptide [7] | hemolysis [8] | protection against HSV-2 [9] | effect of salt on antimicrobial activity ([10]; hypersalinity (175 mM NaCl)) | antimicrobial activity ([10]; physiological (100 mM) NaCl)
1 | CC[C@H](C)[C@@H]1NC(=O)CNC(=O)[C@H](CCCNC(=N)N)NC(=O)CNC(=O)[C@@H]2CSSC[C@H](NC1=O)C(=O)N[C@@H](CCCNC(=N)N)C(=O)N[C@H]1CSSC[C@H](NC(=O)[C@H](CCCNC(=N)N)NC(=O)[C@@H]3CSSC[C@H](NC(=O)[C@H]([C@@H](C)CC)NC1=O)C(=O)NCC(=O)N[C@@H](CCCNC(=N)N)C(=O)NCC(=O)N[C@@H]([C@@H](C)CC)C(=O)N3)C(=O)N[C@@H]([C@@H](C)CC)C(=O)N2 [RC-100, Retrocyclin] (cyclo(GICRCICGRGICRCICGR); disulfide 3-16, 5-14, 7-12) | binds with high affinity | only modestly inhibitory | strong activity | little to no cytotoxicity | 10 µg/mL | complete suppression; also recorded: antiviral | no significant antiviral activity | > 100 µg/mL | little to no cytotoxicity | not reduced | not hemolytic | modest protection | only modestly inhibitory | strong activity
2 | CC[C@H](C)[C@@H]1NC(=O)CNC(=O)[C@H](CCCCN)NC(=O)CNC(=O)[C@@H]2CSSC[C@H](NC1=O)C(=O)N[C@@H](CCCNC(=N)N)C(=O)N[C@H]1CSSC[C@H](NC(=O)[C@H](CCCNC(=N)N)NC(=O)[C@@H]3CSSC[C@H](NC(=O)[C@H]([C@@H](C)CC)NC1=O)C(=O)NCC(=O)N[C@@H](CCCNC(=N)N)C(=O)NCC(=O)N[C@@H]([C@@H](C)CC)C(=O)N3)C(=O)N[C@@H]([C@@H](C)CC)C(=O)N2 [RC-101, R9K-Retrocyclin] | – | – | – | – | – | – | – | – | – | – | – | nearly completely protective | – | –

— patent US7314858B2, “Retrocyclins: antiviral and antimicrobial peptides” (priority 2001, dated 2008)
